Measured values from a compilation of properties of binary mixtures (doi:10.1016/j.fluid.2023.113736).

Test: xn = mol fraction of the nth substance listed
Conditions: 100 kPa, x1 = 0.5

In the case of `C[N+](CCO)(CCO)CCOCCO.[Cl-]` + NC(N)=O, the viscosity (283.15 K) is reported as 45000 mPa·s, the viscosity (288.15 K) is reported as 23200 mPa·s and the viscosity (293.15 K) is reported as 12700 mPa·s. The viscosity (298.15 K) was 7350 mPa·s, the viscosity (303.15 K) was 4396 mPa·s and the viscosity (308.15 K) was 2744 mPa·s. It also gave a viscosity (313.15 K) of 1766 mPa·s, a viscosity (318.15 K) of 1172 mPa·s and a viscosity (323.15 K) of 794 mPa·s. It also gave a viscosity (333.15 K) of 400 mPa·s and a viscosity (338.15 K) of 295 mPa·s.
